Test results: article PMC12186844 (ACS Chemical Neuroscience, 2025)
Substitutions are numbered along the chain they refer to.

Assays:
SNAP-D2SR N393^7.49A = SNAP-D2SR N393^7.49A (Homo sapiens, UniProt P14416, N422A); test: cell membrane [3H]spiperone assay
Procedure: (§1) Flp-In-CHO cells stably expressing the wild-type or mutant DRs were grown to 90% confluence in 175 cm^2 cell culture flasks. The cells were harvested in PBS containing 2 mM EDTA and centrifuged at 300g for 3 min. The resulting pellet was resuspended in ice-cold assay buffer (20 mM HEPES, 100 mM NaCl, 6 mM MgCl2, 1 mM EGTA, and 1 mM EDTA, pH 7.4), and the centrifugation step was repeated. The intact cell pellet was then resuspended in assay buffer and homogenized using a Polytron homogenizer. After centrifugation (1000g, 10 min), the pellet was discarded, and the supernatant was recentrifuged at 30,000g for 1 h at 4 °C using a Sorvall Evolution RC ultracentrifuge (Thermo Scientific). The resulting pellet was resuspended in assay buffer and stored in 250 μL aliquots at −80 °C. Membrane protein concentration was determined using a Pierce’s BCA protein assay kit (Thermo Fisher, Melbourne).
(§2) [^3H]­Spiperone binding experiments using cell membranes were conducted in a 200 μL reaction volume in assay buffer (20 mM HEPES, 100 mM NaCl, 6 mM MgCl2, 1 mM EGTA, and 1 mM EDTA, pH 7.4) containing 100 μM GppNHp and 0.1% ascorbic acid in 96-well plates. […] In all cases, nonspecific binding was determined in the presence of 10 μM haloperidol. […] Filter bound radioactivity was detected as a chemiluminescence after the addition of MicroScint-20 (Revvity) in a MicroBeta plate counter (Revvity). […]

SNAP-D2SR S121^3.39A [1] = target: T1, SNAP-D2SR S121^3.39A (Homo sapiens, UniProt P14416, S121A); test: cell membrane [3H]spiperone assay
T1 sequence (P14416 1-414 isoform P14416-2 S121A): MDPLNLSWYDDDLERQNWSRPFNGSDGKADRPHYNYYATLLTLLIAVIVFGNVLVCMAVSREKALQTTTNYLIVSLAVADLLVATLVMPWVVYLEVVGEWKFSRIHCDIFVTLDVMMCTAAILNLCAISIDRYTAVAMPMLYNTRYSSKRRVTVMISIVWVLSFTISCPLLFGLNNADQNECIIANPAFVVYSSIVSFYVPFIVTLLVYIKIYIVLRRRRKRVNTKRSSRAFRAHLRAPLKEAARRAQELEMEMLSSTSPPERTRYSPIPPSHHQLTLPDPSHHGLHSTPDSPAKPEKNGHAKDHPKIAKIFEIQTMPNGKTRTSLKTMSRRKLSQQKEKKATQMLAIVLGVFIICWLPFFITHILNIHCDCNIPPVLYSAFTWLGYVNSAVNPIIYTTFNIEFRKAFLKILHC
Procedure: as §1, §2

SNAP-D2SR T398^7.54A [2] = target: T2, SNAP-D2SR T398^7.54A (Homo sapiens, UniProt P14416, T427A); test: cell membrane [3H]spiperone assay
Procedure: as §1, §2

SNAP-D2SR C118^3.36A = target: T3, SNAP-D2SR C118^3.36A (Homo sapiens, UniProt P14416, C118A); test: cell membrane [3H]spiperone assay
T3 sequence (P14416 1-414 isoform P14416-2 C118A): T1 sequence (P14416 1-414 isoform P14416-2 S121A) with C118A, A121S
Procedure: as §1, §2

SNAP-D2SR D80^2.50A = SNAP-D2SR D80^2.50A (Homo sapiens, UniProt P14416, D80A); test: cell membrane [3H]spiperone assay
Procedure: as §1, §2

SNAP-D2SR W384^7.40A = SNAP-D2SR W384^7.40A (Homo sapiens, UniProt P14416, W413A); test: functional cAMP assay, BRET biosensor; format: cell-based
Procedure: (§3) Flp-In-CHO cells stably coexpressing the CAMYEL biosensor and DRs were plated into white 96-well CulturPlates (Revvity) and grown overnight. The cells were equilibrated in Hank’s balanced salt solution (HBSS) at 37 °C (or 25 °C when indicated) before starting the experiment. The cells were costimulated with the agonists and 10 μM forskolin for the indicated time frames when the BRET readings were captured. Coelenterazine (Nanolight Technology, AZ) was added at a final concentration of 5 μM at least 3 min prior to measurement. […] Net BRET was determined by subtraction of the vehicle control coadded with 10 μM forskolin. For phenoxybenzamine alkylation experiments, the cells were treated with 0.1, 0.3, or 1 μM phenoxybenzamine (Sigma-Aldrich) diluted in HBSS and equilibrated at 37 °C for 30 min prior to the commencement of the assay.
(§4) Dose–response curves were fitted using the following three-parameter equation: response=bottom+top−bottom/1+10^(logEC50−log[A]) 5 where top and bottom represent the maximal and minimal asymptote of the dose response curve, [A] is the molar concentration of the agonist, and EC50 is the molar concentration of the agonist required to give a response half-way between bottom and top.

SNAP-D2SR W100^ECL1A = SNAP-D2SR W100^ECL1A (Homo sapiens, UniProt P14416, W100A); test: functional cAMP assay, BRET biosensor; format: cell-based
Procedure: as §3, §4

SNAP-D2SR S121^3.39A [3] = target: T1, SNAP-D2SR S121^3.39A; test: functional cAMP assay, BRET biosensor; format: cell-based
Procedure: (§5) Flp-In-CHO cells stably coexpressing the CAMYEL biosensor and DRs were plated into white 96-well CulturPlates (Revvity) and grown overnight. The cells were equilibrated in Hank’s balanced salt solution (HBSS) at 37 °C (or 25 °C when indicated) before starting the experiment. The cells were costimulated with the agonists and 10 μM forskolin for the indicated time frames when the BRET readings were captured. Coelenterazine (Nanolight Technology, AZ) was added at a final concentration of 5 μM at least 3 min prior to measurement. […] Net BRET was determined by subtraction of the vehicle control coadded with 10 μM forskolin.
as §4

D3R = D3R (Homo sapiens, UniProt P35462); test: cell membrane [3H]raclopride binding assay
Procedure: as §1
(§6) [^3H]­Spiperone binding experiments using cell membranes were conducted in a 200 μL reaction volume in assay buffer (20 mM HEPES, 100 mM NaCl, 6 mM MgCl2, 1 mM EGTA, and 1 mM EDTA, pH 7.4) containing 100 μM GppNHp and 0.1% ascorbic acid in 96-well plates. […] In all cases, nonspecific binding was determined in the presence of 10 μM haloperidol. To obtain affinity estimates of unlabeled agonists, competition binding experiments were performed at equilibrium. […] After this incubation period, bound and free radioligands were separated by fast-flow filtration through UniFilter-96 GF/B plates using a MicroBeta FilterMate harvester (Revvity) followed by three washes with ice-cold 0.9% NaCl. Filter bound radioactivity was detected as a chemiluminescence after the addition of MicroScint-20 (Revvity) in a MicroBeta plate counter (Revvity).

SNAP-D2SR L76^2.46A = SNAP-D2SR L76^2.46A (Homo sapiens, UniProt P14416, L76A); test: functional cAMP assay, BRET biosensor; format: cell-based
Procedure: as §5, §4

SNAP-D2SR T398^7.54A [4] = target: T2, SNAP-D2SR T398^7.54A; test: functional cAMP assay, BRET biosensor; format: cell-based; design: expressed in transfected cells
Procedure: as §5, §4

D4.4R = D4.4R (Homo sapiens, UniProt P21917); test: cell membrane [3H]spiperone binding assay
Procedure: as §1
[^3H]­Spiperone binding experiments using cell membranes were conducted in a 200 μL reaction volume in assay buffer (20 mM HEPES, 100 mM NaCl, 6 mM MgCl2, 1 mM EGTA, and 1 mM EDTA, pH 7.4) containing 100 μM GppNHp and 0.1% ascorbic acid in 96-well plates. […] In all cases, nonspecific binding was determined in the presence of 10 μM haloperidol. […] Filter bound radioactivity was detected as a chemiluminescence after the addition of MicroScint-20 (Revvity) in a MicroBeta plate counter (Revvity).

SNAP-D2SR F50^1.48A = SNAP-D2SR F50^1.48A (Homo sapiens, UniProt P14416, F50A); test: functional cAMP assay, BRET biosensor; format: cell-based; design: expressed in transfected cells
Procedure: as §5, §4

SNAP-D2SR WT = SNAP-D2SR WT (Homo sapiens, UniProt P14416); test: cell membrane [3H]spiperone assay
Procedure: as §1, §6
IC50 values obtained from the inhibition curves were converted to Ki values using the Cheng and Prusoff equation.

SNAP-D2SR G51^1.49A = SNAP-D2SR G51^1.49A (Homo sapiens, UniProt P14416, G51A); test: cell membrane [3H]spiperone assay
Procedure: as §1, §2

[5] = read-out: D2 PAM2 KB (converted)

Chain of SNAP-D2SR WT (P14416 1-414 isoform P14416-2): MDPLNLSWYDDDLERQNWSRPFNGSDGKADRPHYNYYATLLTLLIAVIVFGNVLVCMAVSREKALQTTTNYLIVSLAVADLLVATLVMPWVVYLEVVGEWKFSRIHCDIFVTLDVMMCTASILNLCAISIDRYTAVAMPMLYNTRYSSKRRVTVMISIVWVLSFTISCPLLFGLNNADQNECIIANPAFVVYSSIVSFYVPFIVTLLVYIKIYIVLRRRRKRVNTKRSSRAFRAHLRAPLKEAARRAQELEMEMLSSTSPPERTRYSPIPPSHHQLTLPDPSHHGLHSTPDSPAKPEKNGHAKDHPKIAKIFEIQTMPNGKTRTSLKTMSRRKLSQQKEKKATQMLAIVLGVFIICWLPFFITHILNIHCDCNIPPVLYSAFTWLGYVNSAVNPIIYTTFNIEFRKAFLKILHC
Chain of SNAP-D2SR L76^2.46A (P14416 1-414 isoform P14416-2 L76A): as the sequence (P14416 1-414 isoform P14416-2) above, with L76A counted along it
Chain of SNAP-D2SR W100^ECL1A (P14416 1-414 isoform P14416-2 W100A): as the sequence (P14416 1-414 isoform P14416-2) above, with W100A counted along it
T2 sequence (P14416 1-414 isoform P14416-2 T398A): as the sequence (P14416 1-414 isoform P14416-2) above, with T398A counted along it
Chain of SNAP-D2SR F50^1.48A (P14416 1-414 isoform P14416-2 F50A): as the sequence (P14416 1-414 isoform P14416-2) above, with F50A counted along it
Chain of SNAP-D2SR W384^7.40A (P14416 1-414 isoform P14416-2 W384A): as the sequence (P14416 1-414 isoform P14416-2) above, with W384A counted along it
Chain of D3R (P35462 whole entry): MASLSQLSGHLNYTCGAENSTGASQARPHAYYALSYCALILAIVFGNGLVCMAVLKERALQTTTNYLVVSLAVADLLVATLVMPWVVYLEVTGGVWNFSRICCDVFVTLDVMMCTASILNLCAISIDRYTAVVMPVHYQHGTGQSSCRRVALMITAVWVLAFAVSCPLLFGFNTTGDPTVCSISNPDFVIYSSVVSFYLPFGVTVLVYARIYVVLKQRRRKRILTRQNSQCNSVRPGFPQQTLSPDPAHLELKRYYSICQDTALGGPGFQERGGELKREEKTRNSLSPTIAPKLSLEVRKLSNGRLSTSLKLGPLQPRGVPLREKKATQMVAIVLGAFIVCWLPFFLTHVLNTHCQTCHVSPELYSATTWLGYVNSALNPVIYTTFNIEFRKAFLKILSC
Chain of SNAP-D2SR N393^7.49A (P14416 1-414 isoform P14416-2 N393A): as the sequence (P14416 1-414 isoform P14416-2) above, with N393A counted along it
Chain of SNAP-D2SR D80^2.50A (P14416 1-414 isoform P14416-2 D80A): as the sequence (P14416 1-414 isoform P14416-2) above, with D80A counted along it
Chain of SNAP-D2SR G51^1.49A (P14416 1-414 isoform P14416-2 G51A): as the sequence (P14416 1-414 isoform P14416-2) above, with G51A counted along it
Chain of D4.4R (P21917 whole entry): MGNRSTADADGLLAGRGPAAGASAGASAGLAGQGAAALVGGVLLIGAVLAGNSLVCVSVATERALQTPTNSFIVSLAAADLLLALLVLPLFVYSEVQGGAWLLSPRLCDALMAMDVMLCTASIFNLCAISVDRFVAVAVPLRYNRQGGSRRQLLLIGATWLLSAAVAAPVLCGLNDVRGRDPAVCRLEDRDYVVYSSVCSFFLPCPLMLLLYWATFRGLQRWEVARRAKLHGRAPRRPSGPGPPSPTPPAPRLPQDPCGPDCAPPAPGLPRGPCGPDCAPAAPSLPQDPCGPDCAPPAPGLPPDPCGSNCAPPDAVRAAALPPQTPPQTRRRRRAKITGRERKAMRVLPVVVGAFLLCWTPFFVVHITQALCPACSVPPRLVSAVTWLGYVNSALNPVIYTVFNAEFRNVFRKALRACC

- fold shift + 10 μM PAM (SNAP-D2SR N393^7.49A; shift of DA IC50): 0.8 fold
- ΔpIC50 + 10 μM PAM (SNAP-D2SR N393^7.49A; shift of DA pIC50): –0.08 ± 0.10
- fold shift + 10 μM PAM (SNAP-D2SR S121^3.39A [1]; shift of DA IC50): 2.6 fold
- ΔpIC50 + 10 μM PAM (SNAP-D2SR S121^3.39A [1]; shift of DA pIC50): 0.41 ± 0.18
- fold shift + 10 μM PAM (SNAP-D2SR T398^7.54A [2]; shift of DA IC50): 1 fold
- ΔpIC50 + 10 μM PAM (SNAP-D2SR T398^7.54A [2]; shift of DA pIC50): –0.01 ± 0.05
- fold shift + 10 μM PAM (SNAP-D2SR C118^3.36A; shift of DA IC50): 2 fold
- ΔpIC50 + 10 μM PAM (SNAP-D2SR C118^3.36A; shift of DA pIC50): 0.31 ± 0.10
- fold shift + 10 μM PAM (SNAP-D2SR D80^2.50A; shift of DA IC50): 0.9 fold
- ΔpIC50 + 10 μM PAM (SNAP-D2SR D80^2.50A; shift of DA pIC50): –0.04 ± 0.27
- Kb (SNAP-D2SR W384^7.40A): 13.8 µM
- Logτ (SNAP-D2SR W384^7.40A): -0.24 ± 0.08
- pKB (SNAP-D2SR W384^7.40A): 4.86 ± 0.24
- τ (SNAP-D2SR W384^7.40A): 0.57
- Logαβ (SNAP-D2SR W384^7.40A; with DA): 1.04 ± 0.15
- αβ (SNAP-D2SR W384^7.40A; with DA): 11.0
- Kb (SNAP-D2SR W100^ECL1A): 11.7 µM
- Logτ (SNAP-D2SR W100^ECL1A): -0.43 ± 0.06
- pKB (SNAP-D2SR W100^ECL1A): 4.93 ± 0.28
- τ (SNAP-D2SR W100^ECL1A): 0.37
- Logαβ (SNAP-D2SR W100^ECL1A; with DA): 1.54 ± 0.10
- αβ (SNAP-D2SR W100^ECL1A; with DA): 34.7
- D2 PAM2 log τ (SNAP-D2SR S121^3.39A [3]): –1.18 ± 0.15
- D2 PAM2 pKB (SNAP-D2SR S121^3.39A [3]): 4.83 ± 0.11
- D2 PAM2 τ (SNAP-D2SR S121^3.39A [3]): 0.06
- Kb (SNAP-D2SR S121^3.39A [3]; [5]): 15 µM
- D2 PAM2 log αβ (SNAP-D2SR S121^3.39A [3]; with DA): 1.14 ± 0.06
- D2 PAM2 αβ (SNAP-D2SR S121^3.39A [3]; with DA): 14
- Kb (D3R): 17 µM
- logα_DA (D3R): 0.98 ± 0.02
- logα_[3H]raclo (D3R): -0.14 ± 0.04
- pKB (D3R): 4.77 ± 0.14
- α_DA (D3R): 9.5
- α_[3H]raclo (D3R): 0.72
- D2 PAM2 log τ (SNAP-D2SR L76^2.46A): –3
- D2 PAM2 pKB (SNAP-D2SR L76^2.46A): 5.52 ± 0.31
- fold decrease in cooperativity between D2 PAM2 and DA (SNAP-D2SR L76^2.46A): 5 fold
- Kb (SNAP-D2SR L76^2.46A; [5]): 3 µM
- D2 PAM2 log αβ (SNAP-D2SR L76^2.46A; with DA): 0.56 ± 0.09
- D2 PAM2 αβ (SNAP-D2SR L76^2.46A; with DA): 3.6
- D2 PAM2 log τ (SNAP-D2SR T398^7.54A [4]): –1.40 ± 0.22
- D2 PAM2 pKB (SNAP-D2SR T398^7.54A [4]): 5.35 ± 0.17
- D2 PAM2 τ (SNAP-D2SR T398^7.54A [4]): 0.04
- fold decrease in cooperativity with DA (SNAP-D2SR T398^7.54A [4]; cAMP): 6 fold
- Kb (SNAP-D2SR T398^7.54A [4]; [5]): 4 µM
- D2 PAM2 log αβ (SNAP-D2SR T398^7.54A [4]; with DA): 0.46 ± 0.05
- D2 PAM2 αβ (SNAP-D2SR T398^7.54A [4]; with DA): 2.9
- ability to potentiate DA binding at the D4R (D4.4R): no activity was observed
- D2 PAM2 log τ (SNAP-D2SR F50^1.48A): –1.35 ± 0.22
- D2 PAM2 pKB (SNAP-D2SR F50^1.48A): 5.32 ± 0.28
- D2 PAM2 τ (SNAP-D2SR F50^1.48A): 0.04
- fold decrease in cooperativity with DA (SNAP-D2SR F50^1.48A; cAMP): 7 fold
- Kb (SNAP-D2SR F50^1.48A; [5]): 5 µM
- D2 PAM2 log αβ (SNAP-D2SR F50^1.48A; with DA): 0.39 ± 0.07
- D2 PAM2 αβ (SNAP-D2SR F50^1.48A; with DA): 2.5
- pKB (SNAP-D2SR WT; [3H]spiperone competition binding interaction experiment): 5.04 ± 0.17
- Kb (SNAP-D2SR WT; binding interaction experiment): 9 µM
- log α (SNAP-D2SR WT; cooperativity with DA, binding): 1.05 ± 0.10
- α (SNAP-D2SR WT; cooperativity with DA, binding): 11
- fold shift + 10 μM PAM (SNAP-D2SR WT; shift of DA IC50): 9 fold
- ΔpIC50 + 10 μM PAM (SNAP-D2SR WT; shift of DA pIC50): 0.97 ± 0.20
- fold shift + 10 μM PAM (SNAP-D2SR G51^1.49A; shift of DA IC50): 0.8 fold
- ΔpIC50 + 10 μM PAM (SNAP-D2SR G51^1.49A; shift of DA pIC50): –0.08 ± 0.17
Structure (SMILES): COc1cc(CO)c(F)cc1C(=O)n1ccc2c(F)cccc21 [D2 PAM2, [5-fluoro-4-(hydroxymethyl)-2-methoxyphenyl]-(4-fluoro-1H-indol-1-yl)methanone]
